Common to all, as to assay type: cell-based, human
For one assay, the system named is GLUT-1. The assay can be described thus: qRT-PCR, GLUT-1 mRNA expression. As to conditions: HCT 116 p53-/-, 24 and 48 h. On the procedure:
The cells were seeded in 35 mm Petri dishes at a density of 500,000 cells and incubated at 37 °C for 24 h. The total RNA was isolated after incubation with solutions of 13 (0.5 µM and 1.0 µM) for 24 h and 48 h, respectively. The isolation from the samples was carried out according to a TRIzol™ Reagent protocol (Thermo Fisher Scientific). Synthesis of cDNA was performed with 2 µg of total RNA using a GoScript™ Reverse Transcriptase kit (Promega) with Oligo(dT)23 Primers. Real-Time PCR was carried out using a CFX96 Touch™ Real-Time PCR Detection System (Bio-Rad) in 10 µL reaction volume. Each sample contained SsoAdvanced™ Universal SYBR Green Supermix (Bio Rad), a specific primer pair mix (0.5 µM each), and 1 µL of cDNA. […] The obtained data were analysed based on a comparison of the expression of the target genes and normalized to a reference gene (GAPDH) using the Livak-Schmittgen (2^−ΔΔCT) method. […]
To verify the effect of derivative 13 on glucose transporters at the mRNA level, the expression of the genes encoding the best-characterised glucose transporters in cells was quantified in real-time. In addition to GLUT-1, the effect of the tested derivative on changes in the expression of GLUT-3 and GLUT-4 was also evaluated (Fig. 8). […]
Background: Quantitative PCR measures a nucleic acid by following its amplification.

Another assay relates to U-251. The assay can be described thus: Monolayer antiproliferative MTS assay. The note with it: 2D monolayer; for IC50: MTS, 72-h incubation. An excerpt: (§1) The human colon carcinoma cell line HCT 116 with wild-type p53 (p53^+/+) and the human glioblastoma cell line U-251 were obtained from ATCC, while the HCT 116 with a p53 deletion (p53^−/−) was kindly provided by Prof. M. Rusin from the Maria Sklodowska-Curie Memorial Cancer Center and Institute of Oncology in Gliwice, Poland. The human chronic myelogenous leukaemia cell line K562 and the normal human cell dermal fibroblast cell line NHDF were purchased from Sigma-Aldrich and PromoCell, respectively. Both the HCT 116 and U-251 cell lines were cultured in Dulbecco’s modified Eagle’s medium (DMEM) supplemented with 10% inactivated foetal bovine serum (FBS). The DMEM for the NHDF contained 15% non-inactivated FBS. K562 cells were cultured in RPMI medium completed by 10% inactivated FBS. Additionally, the media were supplemented with antibiotics (streptomycin and penicillin – 1% v/v; Sigma-Aldrich). The cell culture was conducted in 75 cm^2 flasks (Nunc) under standard conditions (37 °C, 5% CO2 humidified atmosphere). Furthermore, the cell lines were frequently tested for mycoplasma using the qRT-PCR technique with specific Mycoplasma primers to confirm the lack of contamination.
(§2) The cells were seeded in 96-well plates (Nunc) with 5,000 or 4,000 cells per well for the cancer cells and NHDF, respectively, and incubated under standard conditions at 37 °C overnight. The culture media were then changed for freshly prepared solutions of the tested compounds in various concentrations. After 72-h incubation the antiproliferative assay was carried out as follows: the solutions of the compounds were changed in each well to 100 µL DMEM without phenol red and 20 µL of CellTiter 96 AQueous One Solution-MTS (Promega). The plates were incubated for 1 h at 37 °C, and the absorbance was then measured at 490 nm using a multi-plate reader (Synergy 4, BioTek). The experiment for each sample was repeated at least three times. The results are presented as the half-maximal inhibitory concentration (IC50) values, which were estimated in comparison to untreated cells (control) and calculated using GraphPad Prism v.8.0 (USA).
(§3) However, the antiproliferative activity of derivative 13 with furan a ring was surprising. […] For this purpose, we selected two pancreatic cancer cell lines: AsPC-1, which is characterised by a deletion of the p53 protein[20] and PANC-1, which carries an R273H mutation. This mutation also occurred in the glioblastoma U-251 cell line[22],[23]. An additional non-adherent line that carries the TP53 mutation that results in the absence of p53 is the K562 leukemic cell line[24]. […] Moreover, 13 was selective toward […], as indicated by its SI values (3.35–9.41). Among all of the tested cell lines, the highest activity of the compound was found against the HCT 116 cells with the wild-type p53 protein (0.069 µM). […] The p53 protein also interacts with the metabolic pathways that are associated with glucose transport[25] as well as small molecules. In light of the above-mentioned facts, we also determined the cytotoxicity of the GLUT inhibitor BAY-876, which is based on a quinoline scaffold. […] Furthermore, BAY-876 was also toxic to normal cells.
In general terms: Tetrazolium dyes change colour on reduction, which living cells bring about.

Another assay deals with K562. Description: Monolayer antiproliferative MTS assay. The note with it: 2D model; for IC50: MTS, 72-h incubation.
Description: as §1, §2, §3

On to `O=[N+]([O-])c1ccc(/C=C/c2ccnc3ccccc23)o1` [Compound 13], for which the “GLUT-1 mRNA level vs control” value with GLUT-1 is “significant decrease”. Besides, the IC50 (as a rule, the point on the concentration scale where inhibition reaches its midpoint) in the assay on U-251 was 87 ± 7 nM; in the assay on U-251 (Homo sapiens, U-251, 72 h), below 100 nM; in the assay with K562 it was 93 ± 9 nM; in the assay with K562 (Homo sapiens, K562, 72 h), below 100 nM. The “SI (selectivity index) U-251” value in the assay with U-251 (relative to NHDF) turned out to be 7.46. The “SI (selectivity index) K562” value in the assay on K562 (relative to NHDF) is reported as 6.98.

These data come from publication PMC11574108, “4-Furanylvinylquinoline derivative as a new scaffold for the design of oxidative stress initiator and glucose transporter inhibitor drugs” (Scientific Reports, 2024).
